Tests used:
[1] = tested on: HeLa cells; experiment: Cell viability assay (MTT), HeLa cells; format: cell-based
Method: Cells in exponential growth phase were seeded in a 96 well plate at a concentration of 50,000 cell/well. The cells were allowed to attach to the wells for 24 h at 37° C., 5% CO2, then the culture medium was removed and 100 μL new culture medium containing 1 at gradient concentrations was placed into each well. After culturing at 37° C., 5% CO2 for desired time, each well was added by 10 μL of 5 mg/mL MTT 43-(4,5-Dimethylthiazol-2-yl)-2,5-diphenyltetrazolium bromide), and the plated cells were incubate at dark for 4 h. 100 μL 10% SDS with 0.01 M HCl was added to each well to stop the reduction reaction and to dissolve the purple. After incubation of the cells at 37° C. for overnight, the viability is measured. Data represent the mean±standard deviation of three independent experiments.
The estimation of the threshold concentration of aggregation (320-340 μM) for 1 allows us to examine the cytotoxicity of 1 in monomer and molecular aggregate forms. We first tested the cytotoxicity of 1 towards HeLa cells, the most widely studied cancer cell line, below and above the threshold concentration.

[2] = Self-assembly: gelation and aggregation ability; format: physicochemical
Excerpt: FIG. 22 depicts the characteristics and cytotoxicity of a structural analog of 1.
Another often overlooked feature of amyloid oligomers is that their cytotoxicity is independent of chirality of the amino acids.

[3] = cited from earlier work

| Compound | cytotoxicity (MTT, HeLa cells) compared with 1 [1] | gelation ability compared with 1 [2] | IC50 (cytotoxicity of aberrant protein aggregates) [3] [mg/L] |
| --- | --- | --- | --- |
| O=C(Cc1ccc2ccccc2c1)N[C@@H](Cc1ccc(O)cc1)C(=O)N[C@@H](Cc1ccc(O)cc1)C(=O)O [Nap-YY] | lower cytotoxicity than 1 | poorer gelation ability | – |
| transthyretin | – | – | 200 |
